Laboratory results reported in US20250230171A1 (MOMA Therapeutics, Inc., priority 2023, published 2025).

Columns and labels:
DLD1 BRCA2 (−/−) cells = test: 7-day cell viability assay (CellTiter-Glo), DLD1 BRCA2 (−/−); format: cell-based, human; conditions: Homo sapiens, DLD-1, 168 h, 7-day CellTiter-Glo, n=2, read-out: Viability IC50 (uM) DLD1 BRCA2 null
Experimental: (§1) Cell lines DLD1 WT and DLD1 BRCA2 (−/−) (Horizon Discovery Cat No. HD PAR-008 and HD-105-007) were plated in 384-well culture plates at seeding densities of 100cells/50 ul/well and 200 cells/50 uL/well respectively. The seeding densities are pre-determined from the growth curve kinetics performed to ensure log linear phase of cell growth for these 2 cell lines. These assay plates are then placed in the incubator at 37° C., 5% CO2, relative humidity >90% for a few hours before addition of test compounds. Compounds are dispensed using the Tecan HPD300 or Echo based on the plate map in the appropriate wells of the 384-well plates. The cells are treated with nine-point dose response with 3-fold serial dilutions of test compounds starting at 10 uM top concentration. After addition of the test compounds, the plates are incubated at 37° C., 5% CO2, relative humidity >90% for 7 days. CellTiter-Glo (Promega Cat. No. G7573), ATP detection reagent is prepared according to manufacturer's specifications. Cell assay plates are removed from incubator and bring to room temperature (RT) by letting them sit at bench top for at least 15 min. Using the MultiDrop liquid handler or a multichannel pipette, 35 μL/well of CTG is added and the plates are then placed shakes for 5 seconds, RT.

DLD1 WT cells = test: 7-day cell viability assay (CellTiter-Glo), DLD1 parental (WT); format: cell-based, human; conditions: Homo sapiens, DLD-1, 168 h, 7-day CellTiter-Glo, n=2
Experimental: as §1

Row | IC50 (DLD1 BRCA2 (−/−) cells) | SMILES | IC50 (DLD1 WT cells)
1 | 0.001 to 0.1 µM | COc1cnc(Cl)cc1-c1cc(C)ncc1C(=O)Nc1nc2c(s1)CN(C(=O)c1ncc(C(F)F)c(OC)n1)C2 [Example 907, 2′-chloro-N-(5-(5-(difluoromethyl)-4-methoxypyrimidine-2-carbonyl)-5,6-dihydro-4H-pyrrolo[3,4-d]thiazol-2-yl)-5′-methoxy-6-methyl-[4,4′-bipyridine]-3-carboxamide] | ≥ 10 µM
2 | 0.001 to 0.1 µM | COc1cnc(Cl)cc1-c1cc(C)ncc1C(=O)Nc1nc2c(s1)CN(C(=O)[C@H]1CC[C@H](C(F)F)CC1)C2 [Example 908, 2′-chloro-N-(5-((1r,4r)-4-(difluoromethyl)cyclohexane-1-carbonyl)-5,6-dihydro-4H-pyrrolo[3,4-d]thiazol-2-yl)-5′-methoxy-6-methyl-[4,4′-bipyridine]-3-carboxamide] | ≥ 10 µM
3 | 0.001 to 0.1 µM | COc1cnc(Cl)cc1-c1cc(C)ncc1C(=O)Nc1nc2c(s1)CN(C(=O)[C@H]1CC[C@@H](C(F)F)CC1)C2 [Example 909, 2′-chloro-N-(5-((1s,4s)-4-(difluoromethyl)cyclohexane-1-carbonyl)-5,6-dihydro-4H-pyrrolo[3,4-d]thiazol-2-yl)-5′-methoxy-6-methyl-[4,4′-bipyridine]-3-carboxamide] | ≥ 10 µM
4 | 0.001 to 0.1 µM | Cc1cc(-c2cc(Cl)ncc2OC(F)F)c(C(=O)Nc2nc3c(s2)CN(C(=O)c2ncc(Cl)cn2)C3)cn1 [Example 910, 2′-chloro-N-(5-(5-chloropyrimidine-2-carbonyl)-5,6-dihydro-4H-pyrrolo[3,4-d]thiazol-2-yl)-5′-(difluoromethoxy)-6-methyl-[4,4′-bipyridine]-3-carboxamide] | ≥ 10 µM
5 | 0.001 to 0.1 µM | Cc1cc(-c2cc(Cl)ncc2OC(F)F)c(C(=O)Nc2nc3c(s2)CN(C(=O)c2nc(C(F)F)ccc2Cl)C3)cn1 [Example 922, 2′-chloro-N-(S-(3-chloro-6-(difluoromethyl)picolinoyl)-5,6-dihydro-4H-pyrrolo[3,4-d]thiazol-2-yl)-5′-(difluoromethoxy)-6-methyl-[4,4′-bipyridine]-3-carboxamide] | ≥ 10 µM
6 | 0.001 to 0.1 µM | COc1cnc(Cl)cc1-c1cc(C)ncc1C(=O)Nc1nc2c(s1)CN(C(=O)c1ccc(C(F)(F)F)nc1Cl)C2 [Example 923, 2′-chloro-N-(5-(2-chloro-6-(trifluoromethyl)nicotinoyl)-5,6-dihydro-4H-pyrrolo[3,4-d]thiazol-2-yl)-5′-methoxy-6-methyl-[4,4′-bipyridine]-3-carboxamide] | ≥ 10 µM
7 | 0.001 to 0.1 µM | COc1cnc(Cl)cc1-c1cc(C)ncc1C(=O)Nc1nc2c(s1)CN(C(=O)[C@H]1CC[C@@H](OC(F)(F)F)CC1)C2 [Example 925] | 5 to 10 µM
8 | 0.001 to 0.1 µM | COc1cnc(Cl)cc1-c1cc(C)ncc1C(=O)Nc1nc2c(s1)CN(C(=O)c1nccc(Cl)c1C(F)F)C2 [Example 926, 2′-chloro-N-(5-(4-chloro-3-(difluoromethyl)picolinoyl)-5,6-dihydro-4H-pyrrolo[3,4-d]thiazol-2-yl)-5′-methoxy-6-methyl-[4,4′-bipyridine]-3-carboxamide] | ≥ 10 µM
9 | 0.001 to 0.1 µM | COc1cnc(Cl)cc1-c1cc(C)ncc1C(=O)Nc1nc2c(s1)CN(C(=O)c1nc(Cl)c(C(F)F)cc1F)C2 [Example 927, 2′-chloro-N-(5-(6-chloro-5-(difluoromethyl)-3-fluoropicolinoyl)-5,6-dihydro-4H-pyrrolo[3,4-d]thiazol-2-yl)-5′-methoxy-6-methyl-[4,4′-bipyridine]-3-carboxamide] | ≥ 10 µM
10 | 0.001 to 0.1 µM | COc1cnc(Cl)cc1-c1cc(C)ncc1C(=O)Nc1nc2c(s1)CN(C(=O)c1nc(C(F)(F)F)ccc1F)C2 [Example 936, 2′-chloro-N-(5-(3-fluoro-6-(trifluoromethyl)picolinoyl)-5,6-dihydro-4H-pyrrolo[3,4-d]thiazol-2-yl)-5′-methoxy-6-methyl-[4,4′-bipyridine]-3-carboxamide] | ≥ 10 µM
11 | 0.001 to 0.1 µM | COc1cnc(Cl)cc1-c1cc(C)ncc1C(=O)Nc1nc2c(s1)CN(C(=O)c1nc(C(F)(F)F)ccc1OC)C2 [Example 937, 2′-chloro-5′-methoxy-N-(5-(3-methoxy-6-(trifluoromethyl)picolinoyl)-5,6-dihydro-4H-pyrrolo[3,4-d]thiazol-2-yl)-6-methyl-[4,4′-bipyridine]-3-carboxamide] | ≥ 10 µM

Second part, the compound before the results:

Row | SMILES | IC50 (DLD1 BRCA2 (−/−) cells) | IC50 (DLD1 WT cells)
12 | COc1cnc(Cl)cc1-c1cc(C)ncc1C(=O)Nc1nc2c(s1)CN(C(=O)c1cc(C)cc(Cl)n1)C2 [Example 392, 2′-chloro-N-(5-(6-chloro-4-methylpicolinoyl)-5,6-dihydro-4H-pyrrolo[3,4-d]thiazol-2-yl)-5′-methoxy-6-methyl-[4,4′-bipyridine]-3-carboxamide] | 0.1 to 0.25 µM | ≥ 10 µM
13 | COc1cnc(Cl)cc1-c1cc(C)ncc1C(=O)Nc1nc2c(s1)CN(C(=O)c1cccc(OC)c1Cl)C2 [Example 396, 2′-chloro-N-(5-(2-chloro-3-methoxybenzoyl)-5,6-dihydro-4H-pyrrolo[3,4-d]thiazol-2-yl)-5′-methoxy-6-methyl-[4,4′-bipyridine]-3-carboxamide] | 0.001 to 0.1 µM | ≥ 10 µM
14 | COc1ncc(Cl)cc1-c1cc(C)ncc1C(=O)Nc1nc2c(s1)CN(C(=O)c1ccc(C(F)F)cn1)C2 [Example 446, 5-Chloro-N-(5-(5-(difluoromethyl)picolinoyl)-5,6-dihydro-4H-pyrrolo[3,4-d]thiazol-2-yl)-2-methoxy-6′-methyl-[3,4′-bipyridine]-3′-carboxamide] | 0.001 to 0.1 µM | 2 to 5 µM
15 | COc1cnc(Cl)cc1-c1cc(C)ncc1C(=O)Nc1nc2c(s1)CN(C(=O)c1ccc(C#N)cn1)C2 [Example 578] | 0.001 to 0.1 µM | 5 to 10 µM
16 | COc1cnc(Cl)cc1-c1cc(C)ncc1C(=O)Nc1nc2c(s1)CN(C(=O)c1cc(C)c(C#N)cn1)C2 [Example 611] | 0.001 to 0.1 µM | ≥ 10 µM
17 | COc1cnc(Cl)cc1-c1cc(C)ncc1C(=O)Nc1nc2c(s1)CN(C(=O)c1nc(C)c(C(F)F)cc1F)C2 [Example 621] | 0.001 to 0.1 µM | ≥ 10 µM
18 | COc1cnc(Cl)cc1-c1cc(C)ncc1C(=O)Nc1nc2c(s1)CN(C(=O)c1nc(C)c(Cl)nc1C)C2 [Example 622] | 0.001 to 0.1 µM | ≥ 10 µM
19 | COc1cnc(Cl)cc1-c1cc(C)ncc1C(=O)Nc1nc2c(s1)CN(C(=O)c1c(C)cc(C(F)(F)F)nc1C)C2 [Example 649] | 0.001 to 0.1 µM | ≥ 10 µM
20 | COc1cnc(Cl)cc1-c1cc(C)ncc1C(=O)Nc1nc2c(s1)CN(C(=O)c1cc(C)c(C(F)F)cn1)C2 [Example 903, 2′-chloro-N-(5-(5-(difluoromethyl)-4-methylpicolinoyl)-5,6-dihydro-4H-pyrrolo[3,4-d]thiazol-2-yl)-5′-methoxy-6-methyl-[4,4′-bipyridine]-3-carboxamide] | 0.001 to 0.1 µM | ≥ 10 µM
21 | COc1cnc(Cl)cc1-c1cc(C)ncc1C(=O)Nc1nc2c(s1)CN(C(=O)c1ncc(C)nc1OC)C2 [Example 905, 2′-chloro-5′-methoxy-N-(5-(3-methoxy-5-methylpyrazine-2-carbonyl)-5,6-dihydro-4H-pyrrolo[3,4-d]thiazol-2-yl)-6-methyl-[4,4′-bipyridine]-3-carboxamide] | 0.001 to 0.1 µM | ≥ 10 µM
